Results taken from publication PMC12222587, “A2B adenosine receptor-triggered intracellular calcium mobilization: Cell type-dependent involvement of Gi, Gq, Gs proteins and protein kinase C” (Purinergic Signalling, 2025).
“Also recorded” adds a separate entry of the source. *1 amine or outer side, *2 acyl side, *3 side chain or, on linkers, in order; H or OH if unused. Where a SMILES comes first, the peptide text is derived from it. Bridges are numbered along the chain shown (N, C = ends). [ ]: non-standard residue; d: D form. The star is where a group is joined. Leu(3R-OH,Nα-propionyl) = CCC(=O)N[C@H](C(=O)*)[C@H](O)C(C)C; X1 = CC(C)[C@@H](O[*:3])[C@H](N[*:1])C(=O)[*:2]; NMeT = CN[C@H](C(=O)O)[C@@H](C)O; dPhLac = O=C(O)[C@H](O)Cc1ccccc1; NMeA = CN[C@@H](C)C(=O)O; NMeDha = C=C(NC)C(=O)O

What was measured:
[1] = system: endogenous adenosine receptors; assay: cAMP accumulation, MDA-MB-231 cells expressing endogenous adenosine receptors; assay type: cell-based, human
Procedure: (§1) HEK293, T24 bladder cancer and MDA-MB-231 breast cell lines were cultured in DMEM medium containing 10% fetal bovine serum, 100 units/ml penicillin, 100 μg/ml streptomycin, and 2 μmol/ml glutamine. For the assay of 3′,5′-cyclic adenosine monophosphate (cAMP), cells were plated in 96-well (4 × 10^4 cells/well) clear plates in 100 μl of medium overnight. Cell culture medium was then replaced with 80 µl HBSS buffer containing 20 mM HEPES, phosphodiesterase inhibitor rolipram (10 μM), and 3 units/ml adenosine deaminase (Worthington Biochemical, Lakewood, NJ, USA) for 30 min followed by agonist addition to the mixture, which was then incubated for 20 min. The treatment of YM or FR was 20 min before agonist addition.

P2Y1R [2] = molecular target: T1, P2Y1R (Homo sapiens, UniProt P47900); assay: Intracellular calcium mobilization, HEK293 cells, native P2Y1R (MRS2365); assay type: cell-based
T1 sequence (P47900 whole entry): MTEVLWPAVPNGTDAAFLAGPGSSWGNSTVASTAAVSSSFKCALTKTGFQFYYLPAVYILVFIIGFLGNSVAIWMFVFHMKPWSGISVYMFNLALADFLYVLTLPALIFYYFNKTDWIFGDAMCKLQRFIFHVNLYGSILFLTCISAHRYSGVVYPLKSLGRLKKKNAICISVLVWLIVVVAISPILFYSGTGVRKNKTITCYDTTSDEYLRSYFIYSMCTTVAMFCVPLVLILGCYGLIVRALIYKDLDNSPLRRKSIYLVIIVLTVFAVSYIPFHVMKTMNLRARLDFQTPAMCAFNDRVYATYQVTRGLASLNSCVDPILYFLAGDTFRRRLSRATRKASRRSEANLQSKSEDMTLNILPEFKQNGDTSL

A1AR [3] = molecular target: T2, A1AR (Homo sapiens, UniProt P30542); assay: Intracellular calcium mobilization, HEK293 cells expressing recombinant A1AR (CCPA); assay type: cell-based
T2 construct: expressed in transfected cells
T2 sequence (P30542 1-326): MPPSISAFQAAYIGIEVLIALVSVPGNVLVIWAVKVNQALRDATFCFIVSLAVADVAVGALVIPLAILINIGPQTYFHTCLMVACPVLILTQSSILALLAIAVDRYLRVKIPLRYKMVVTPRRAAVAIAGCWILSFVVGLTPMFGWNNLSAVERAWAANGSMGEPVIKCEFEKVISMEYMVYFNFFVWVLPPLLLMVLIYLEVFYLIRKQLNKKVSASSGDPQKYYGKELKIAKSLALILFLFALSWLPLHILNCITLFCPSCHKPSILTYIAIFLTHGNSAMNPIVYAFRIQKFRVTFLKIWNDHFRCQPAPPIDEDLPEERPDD

A1AR [4] = molecular target: T2, A1AR; assay: cAMP accumulation, HEK293 cells, A1AR-mediated inhibition of forskolin-stimulated cAMP (CCPA); assay type: cell-based
Procedure: as §1

A2AAR = molecular target: T3, A2AAR (Homo sapiens, UniProt P29274); assay: cAMP accumulation, HEK293 cells, A2AAR-mediated stimulation (CGS21680); assay type: cell-based
T3 construct: host or cells: HEK293
T3 sequence (P29274 whole entry): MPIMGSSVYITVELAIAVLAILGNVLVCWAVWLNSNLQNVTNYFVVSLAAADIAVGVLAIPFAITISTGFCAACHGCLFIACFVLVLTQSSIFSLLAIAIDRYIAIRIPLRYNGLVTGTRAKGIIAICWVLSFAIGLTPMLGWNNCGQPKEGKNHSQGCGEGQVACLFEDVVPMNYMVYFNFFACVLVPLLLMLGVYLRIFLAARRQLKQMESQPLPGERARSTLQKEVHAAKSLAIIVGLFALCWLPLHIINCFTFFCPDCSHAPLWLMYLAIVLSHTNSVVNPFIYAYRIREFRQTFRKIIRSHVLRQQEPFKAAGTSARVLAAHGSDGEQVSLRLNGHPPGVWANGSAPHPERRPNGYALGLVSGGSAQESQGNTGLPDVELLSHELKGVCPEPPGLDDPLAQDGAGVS
Procedure: as §1

A2BAR = molecular target: T4, A2BAR (Homo sapiens, UniProt P29275); assay: Intracellular calcium mobilization, T24 bladder cancer cells, native A2BAR (NECA); assay type: cell-based; settings: T24 cells
T4 sequence (P29275 1-332): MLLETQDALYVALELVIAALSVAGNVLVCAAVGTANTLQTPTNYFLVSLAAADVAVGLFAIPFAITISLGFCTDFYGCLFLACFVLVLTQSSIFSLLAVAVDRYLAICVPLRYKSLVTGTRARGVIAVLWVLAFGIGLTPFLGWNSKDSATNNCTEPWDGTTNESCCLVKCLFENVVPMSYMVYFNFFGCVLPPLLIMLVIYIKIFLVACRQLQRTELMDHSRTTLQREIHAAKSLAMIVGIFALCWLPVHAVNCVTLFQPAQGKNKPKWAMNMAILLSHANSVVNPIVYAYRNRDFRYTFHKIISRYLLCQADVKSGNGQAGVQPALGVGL

P2Y1R [5] = molecular target: T1, P2Y1R; assay: Intracellular calcium mobilization, T24 bladder cancer cells, native P2Y1R (MRS2365); assay type: cell-based; settings: for Effect on native P2Y1R (MRS2365)-triggered calcium mobilization: YM 300 nM, FR 300 nM, PTX 200 ng/ml overnight
β2-adrenergic receptor = β2-adrenergic receptor (Homo sapiens, UniProt P07550); assay: Intracellular calcium mobilization, T24 bladder cancer cells, endogenous β2-adrenergic receptor; assay type: cell-based; settings: T24 cells, FR 300 nM, PMA 1 µM
Sequence of β2-adrenergic receptor (P07550 whole entry): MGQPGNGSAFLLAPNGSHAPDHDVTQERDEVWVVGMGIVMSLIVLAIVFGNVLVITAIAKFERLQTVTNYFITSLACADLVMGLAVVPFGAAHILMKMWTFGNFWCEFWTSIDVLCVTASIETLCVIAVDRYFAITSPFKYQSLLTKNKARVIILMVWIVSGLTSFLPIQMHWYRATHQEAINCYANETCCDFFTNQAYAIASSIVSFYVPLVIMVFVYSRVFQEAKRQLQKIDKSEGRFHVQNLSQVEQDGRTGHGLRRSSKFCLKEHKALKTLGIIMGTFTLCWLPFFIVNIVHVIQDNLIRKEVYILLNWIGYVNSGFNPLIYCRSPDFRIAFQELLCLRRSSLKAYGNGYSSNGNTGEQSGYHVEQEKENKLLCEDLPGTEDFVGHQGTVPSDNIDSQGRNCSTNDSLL

A2B adenosine receptor = system: A2B adenosine receptor; parameters: method as in PMID 26954502; settings: CHO cells; FR 300 nM; cited from earlier work
A1AR [6] = settings: CHO cells; FR 300 nM; cited from earlier work
A1AR [7] = settings: overexpressed in CHO or 1321N1 astrocytoma cells; FR 100 nM; cited from earlier work
[8] = system: M2 muscarinic acetylcholine receptor; settings: overexpressed in CHO or 1321N1 astrocytoma cells; FR 100 nM; cited from earlier work
P2Y12 receptor = system: P2Y12 receptor; parameters: method as in PMID 26954502; settings: overexpressed in CHO or 1321N1 astrocytoma cells; FR 100 nM; cited from earlier work
A1AR [9] = settings: FR 100 nM; cited from earlier work
A1AR [10] = settings: FR 100 nM; small but significant; cited from earlier work
[11] = system: M3 acetylcholine receptor; parameters: method as in PMID 26954502; settings: FR at both 100 and 300 nM; cited from earlier work
P2Y1 receptor [12] = system: P2Y1 receptor; parameters: method as in PMID 26954502; settings: FR at both 100 and 300 nM; cited from earlier work
[13] = system: M3 acetylcholine receptor; parameters: method as in PMID 26954502; settings: FR at 100 and 300 nM; cited from earlier work
P2Y1 receptor [14] = system: P2Y1 receptor; parameters: method as in PMID 26954502; settings: FR at 100 and 300 nM; cited from earlier work
[15] = GO 20 min, then PMA 20 min before agonist

CCNC(=O)[C@H]1O[C@@H](n2cnc3c(N)nc(NCCc4ccc(CCC(=O)O)cc4)nc32)[C@H](O)[C@@H]1O [CGS21680]
EC50 [1]: 2240 ± 850 nM

C=C1C(=O)N[C@@H](C)C(=O)N(C)[C@@H](C)C(=O)N[C@@H]([C@H](OC(=O)[C@@H](NC(=O)CC)[C@H](O)C(C)C)C(C)C)C(=O)N(C)[C@@H]([C@@H](C)OC)C(=O)O[C@H](C(C)C)[C@H](NC(C)=O)C(=O)O[C@H](Cc2ccccc2)C(=O)N1C [FR, FR900359] (Ac-[X1][dPhLac][NMeDha]A[NMeA][X1](Leu(3R-OH,Nα-propionyl))[NMeT](Me); ester 1-C)
Effect on P2Y1R (MRS2365)-mediated calcium mobilization (P2Y1R [2]; Gq/11 siRNA 250 nM, PTX 200 ng/ml overnight, FR, YM 20 min before agonist): inhibited; also recorded: fully sensitive
IC50 (P2Y1R [2]; agonist MRS2365 1 µM, read-out: IC50 to inhibit P2Y1R-mediated calcium mobilization): 13.2 ± 3.2 nM
Effect on A1AR (CCPA)-mediated calcium mobilization (A1AR [3]; HEK293 cells overexpressing A1AR, Gq/11 siRNA 250 nM, PTX 200 ng/ml overnight, FR, YM 20 min before agonist): inhibited; also recorded: YM and FR – fully sensitive (2)
IC50 (A1AR [3]; HEK293 cells, overexpressed A1AR, agonist CCPA 1 µM, read-out: IC50 for inhibition of A1AR-mediated calcium mobilization): 8.66 ± 3.23 nM
Effect on A1AR-mediated inhibition of cAMP accumulation (A1AR [4]): did not affect
Effect on A2AAR-mediated stimulation of cAMP accumulation (A2AAR): did not affect
Effect on native A2BAR (NECA)-triggered calcium mobilization (A2BAR; YM 300 nM, FR 300 nM, PTX 200 ng/ml, CTX 500 ng/ml overnight, other inhibitors 20 min before NECA): FR and YM insensitive (4); Gαq/11 siRNA insensitive (4)
Effect on native P2Y1R (MRS2365)-triggered calcium mobilization (P2Y1R [5]): completely inhibited
Effect on isoproterenol-induced calcium mobilization (β2-adrenergic receptor) (β2-adrenergic receptor): diminished
Effect on formoterol-induced calcium mobilization (β2-adrenergic receptor) (β2-adrenergic receptor; YM 1 µM, PTX 200 ng/ml, CTX 500 ng/ml): diminished
Effect on A2BAR-Gαs-mediated cAMP accumulation (A2B adenosine receptor): no effect
Effect on A1AR-Gαi-mediated inhibition of forskolin-stimulated cAMP accumulation (A1AR [6]): no effect
Effect on Giβγ-mediated calcium mobilization, or IP1 accumulation, upon A1AR activation (A1AR [7]): nearly complete inhibition
Effect on Giβγ-mediated calcium mobilization, or IP1 accumulation, upon M2 receptor activation [8]: nearly complete inhibition
Effect on Giβγ-mediated calcium mobilization, or IP1 accumulation, upon P2Y12R activation (P2Y12 receptor): nearly complete inhibition
Effect on A1AR-mediated Akt1/2/3 phosphorylation (A1AR [9]): no effect
Inhibition of A1AR-mediated ERK1/2 activity (A1AR [10]): < 30%
Effect on ERK1/2 activity triggered by the M3 acetylcholine receptor [11]: only partially inhibited
Effect on ERK1/2 activity triggered by the P2Y1 receptor (P2Y1 receptor [12]): only partially inhibited
Effect on calcium response triggered by the M3 acetylcholine receptor [13]: completely inhibited
Effect on calcium response triggered by the P2Y1 receptor (P2Y1 receptor [14]): completely inhibited

COc1ccc2c(c1)c(C1=C(c3c[nH]c4ccccc34)C(=O)NC1=O)cn2CCCN(C)C [GO]
Effect of pretreatment on the PMA effect at A2BAR-triggered Ca2+ increase (A2BAR; [15]): eliminated the effect of PMA
Effect of pretreatment on the PMA effect at P2Y1R-triggered Ca2+ increase (P2Y1R [5]; [15]): eliminated the effect of PMA
Effect on native P2Y1R (MRS2365)-triggered calcium mobilization (P2Y1R [5]): significantly enhanced

CSc1nc(N)c2ncn([C@H]3[C@H](O)[C@H](O)[C@]4(COP(=O)(O)OP(=O)(O)O)C[C@H]34)c2n1 [MRS2365]
EC50 (P2Y1R [5]; absence of PTX): 1.38 ± 0.26 nM

CCNC(=O)[C@H]1O[C@@H](n2cnc3c(N)ncnc32)[C@H](O)[C@@H]1O [NECA, adenosine-5′-N-ethyluronamide]
EC50 [1]: 73.1 ± 18.2 nM
